Active and inactive are the calls of the source.
Tests used:
[1] = alpha-synuclein stem-loop luciferase translation blockers – H4 neuroglioma cells, luminescence, confirmation (AID 1988); format: functional, cell-based
[2] = Trypanosoma cruzi growth suppression in host cells – NIH3T3 host cells, beta-gal luminescence, confirmation (AID 2044); format: functional, cell-based;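 note: intracellular parasites grown in NIH/3T3 mouse fibroblasts as host cells; luminescent beta-galactosidase reporter signal from transgenic T. cruzi replicating inside host cells; inhibitors lower the luminescence signal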
[3] = target: Photoreceptor-specific nuclear receptor (Homo sapiens, UniProt Q9Y5X4); format: functional, cell-based;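 note: CHO-S cells with Gal4-NCOR and VP16-NR2E3 two-hybrid luciferase reporter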
Sequence of Photoreceptor-specific nuclear receptor (Q9Y5X4 whole entry, the tested form may be a part): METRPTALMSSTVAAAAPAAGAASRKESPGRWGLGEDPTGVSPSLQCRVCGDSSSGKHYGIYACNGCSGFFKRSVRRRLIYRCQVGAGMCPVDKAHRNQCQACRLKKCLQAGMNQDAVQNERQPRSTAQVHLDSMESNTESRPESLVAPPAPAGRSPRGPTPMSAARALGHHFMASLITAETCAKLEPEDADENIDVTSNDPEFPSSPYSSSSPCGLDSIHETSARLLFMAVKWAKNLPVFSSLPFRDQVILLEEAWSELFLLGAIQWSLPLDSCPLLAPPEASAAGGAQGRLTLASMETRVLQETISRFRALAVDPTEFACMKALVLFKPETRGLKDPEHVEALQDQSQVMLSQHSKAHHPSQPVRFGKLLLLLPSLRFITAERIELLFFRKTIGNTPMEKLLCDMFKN

[4] = test system: Streptococcus sp. 'group A'; assay: Streptococcus pyogenes SK(-)GAS viability under kanamycin – luminescence, BacTiterGlo, confirmation, counter-screen for streptokinase expression inhibitor project, dose response (AID 1900); format: functional, organism-based
[5] = NIH3T3 cell viability loss, ATP content – CellTiter-Glo luminescence, cherry-pick, set 2, cytotoxicity control for HSP40 inhibitor project, dose response (AID 624265); format: functional
[6] = cells; format: functional, cell-based
[7] = Luminescence Cell-Based Dose Response HTS to Identify Inhibitors of 5'UTR Stem-Loop Driven Prion Protein mRNA Translation in H4 Neuroglioblastoma Cells. [Related pubchem assays: 1827 (Project Summary), 1813 (Primary HTS)]; format: functional
[8] = loss of viability in HepG2 cells – cell-based, CellTiter-Glo, cherry-picked, cytotoxicity control for Shn3 inhibitor project, dose response (AID 624134); format: functional
[9] = cells; format: functional, cell-based; remark: listed apart in the source
[10] = test system: INS1; assay: INS-1E survival protection against cytokine death – cell-based, luminescence, retest, dose response (AID 449756); format: functional; conditions: Rattus norvegicus;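 note: cell death triggered by IL-1 beta plus TNF-alpha plus IFN-gamma mixture; protective hits raise ATP signal compared with cytokine alone wells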
[11] = reduction of Shn3 3'UTR-driven luciferase in osteoblasts – cell-based, Clone20 osteoblasts, firefly luciferase, cherry-picked, dose response (AID 624132); format: functional;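 note: firefly luciferase luminescence from reporter carrying the Shn3 3'UTR in osteoblasts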
[12] = NIH3T3 cell viability loss – ATP luminescence, mouse fibroblasts, counter-screen, dose response (AID 2010); format: functional, cell-based;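 note: cells exposed to compound for about 90 hours before reading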
[13] = non-specific 3'UTR reporter inhibition in Clone20-Shn3RL – cell-based, Renilla luciferase, cherry-picked, counter-screen for Shn3 inhibitor project, dose response (AID 624133); format: functional
[14] = test system: Streptococcus; assay: GAS UMAA2166 growth inhibition – luminescence, BacTiterGlo, counter-screen for streptokinase expression inhibitor project, dose response (AID 1915); format: functional, organism-based;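 note: potency for reduction of bacterial viability or growth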
[15] = luciferase reporter signal suppression in cells – H4 neuroglioma cells, luminescence, dose response (AID 1990); format: functional, cell-based
[16] = HEK-293T viability loss after treatment – luminescence, T-cell screen hits, cytotoxicity control for TCR NF-kB inhibitor project, dose response (AID 489026); format: functional, cell-based;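 note: cells exposed to compound about 14 hours before the viability readout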
[17] = test system: A549; assay: viability loss in A549 cells – cell-based, plate reader, cherry-pick samples, cytotoxicity control, dose response (AID 687028); format: functional; conditions: Homo sapiens
[18] = viability of HCT116 lacking mutant beta-catenin – cell-based, human colon tumor, dose response (AID 1045); format: functional;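 note: HCT116 colon tumor cells with beta catenin knocked out; cells exposed to compound for 60 hours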
[19] = target: Nonstructural protein 1 (Influenza A virus, UniProt Q194T2); format: functional, Influenza A virus (A/California/07/2009(H1N1))
Sequence of Nonstructural protein 1 (Q194T2 whole entry, the tested form may be a part): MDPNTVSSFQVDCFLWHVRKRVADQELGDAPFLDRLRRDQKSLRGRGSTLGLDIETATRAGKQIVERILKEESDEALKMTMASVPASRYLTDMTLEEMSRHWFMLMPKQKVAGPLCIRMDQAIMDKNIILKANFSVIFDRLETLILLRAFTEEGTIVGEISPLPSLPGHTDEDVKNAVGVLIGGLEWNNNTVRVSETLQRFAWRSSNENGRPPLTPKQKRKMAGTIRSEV

[20] = target: Arf-GAP with SH3 domain, ANK repeat and PH domain-containing protein 1 (Homo sapiens, UniProt Q9ULH1); format: functional;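 note: biochemical fluorescence polarization dose–response screen measuring inhibition of ASAP1; ASAP1 GAP domain stimulating GTP hydrolysis by truncated human ARF1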
Sequence of Arf-GAP with SH3 domain, ANK repeat and PH domain-containing protein 1 (Q9ULH1 whole entry, the tested form may be a part): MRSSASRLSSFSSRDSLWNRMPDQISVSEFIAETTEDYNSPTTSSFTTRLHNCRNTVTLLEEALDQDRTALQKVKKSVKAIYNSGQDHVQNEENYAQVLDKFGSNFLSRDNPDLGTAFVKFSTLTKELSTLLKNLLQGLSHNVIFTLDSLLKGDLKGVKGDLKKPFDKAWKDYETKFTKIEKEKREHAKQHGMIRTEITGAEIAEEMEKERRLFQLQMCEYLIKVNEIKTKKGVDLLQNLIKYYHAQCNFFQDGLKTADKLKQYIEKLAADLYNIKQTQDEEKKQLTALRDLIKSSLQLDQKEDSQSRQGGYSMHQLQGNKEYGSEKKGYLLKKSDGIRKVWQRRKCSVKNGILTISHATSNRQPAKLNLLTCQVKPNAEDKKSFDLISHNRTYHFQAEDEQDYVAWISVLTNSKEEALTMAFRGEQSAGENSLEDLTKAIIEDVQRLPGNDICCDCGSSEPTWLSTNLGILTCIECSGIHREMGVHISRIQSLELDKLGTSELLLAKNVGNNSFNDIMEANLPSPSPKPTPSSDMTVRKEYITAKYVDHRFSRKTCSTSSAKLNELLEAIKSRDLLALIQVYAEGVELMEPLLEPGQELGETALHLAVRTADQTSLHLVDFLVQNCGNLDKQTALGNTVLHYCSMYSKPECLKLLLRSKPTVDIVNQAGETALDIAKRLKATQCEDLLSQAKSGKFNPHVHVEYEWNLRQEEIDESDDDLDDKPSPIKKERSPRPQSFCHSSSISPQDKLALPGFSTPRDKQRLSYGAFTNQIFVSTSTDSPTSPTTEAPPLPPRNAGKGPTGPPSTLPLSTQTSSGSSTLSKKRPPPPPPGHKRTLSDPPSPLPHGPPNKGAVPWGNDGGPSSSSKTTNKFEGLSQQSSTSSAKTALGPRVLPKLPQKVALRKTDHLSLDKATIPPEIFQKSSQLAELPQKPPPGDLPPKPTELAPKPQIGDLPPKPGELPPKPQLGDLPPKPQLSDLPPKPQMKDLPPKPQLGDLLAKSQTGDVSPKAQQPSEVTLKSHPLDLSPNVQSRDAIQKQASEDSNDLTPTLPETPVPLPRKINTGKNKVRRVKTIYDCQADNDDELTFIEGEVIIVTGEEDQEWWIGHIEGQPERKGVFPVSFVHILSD

[21] = viability of PTEN-deleted HCT116 cells – cell-based, HCT116 PTEN knockout, dose response (AID 1047); format: functional;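 note: HCT116 colon tumor cells with PTEN knocked out; cells exposed to compound for 60 hours before readout; potency for loss of cell viability measured by luminescence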
[22] = target: T1, DNA repair protein RAD52 homolog (Homo sapiens, UniProt P43351); format: functional, biochemical
T1 sequence (P43351 whole entry): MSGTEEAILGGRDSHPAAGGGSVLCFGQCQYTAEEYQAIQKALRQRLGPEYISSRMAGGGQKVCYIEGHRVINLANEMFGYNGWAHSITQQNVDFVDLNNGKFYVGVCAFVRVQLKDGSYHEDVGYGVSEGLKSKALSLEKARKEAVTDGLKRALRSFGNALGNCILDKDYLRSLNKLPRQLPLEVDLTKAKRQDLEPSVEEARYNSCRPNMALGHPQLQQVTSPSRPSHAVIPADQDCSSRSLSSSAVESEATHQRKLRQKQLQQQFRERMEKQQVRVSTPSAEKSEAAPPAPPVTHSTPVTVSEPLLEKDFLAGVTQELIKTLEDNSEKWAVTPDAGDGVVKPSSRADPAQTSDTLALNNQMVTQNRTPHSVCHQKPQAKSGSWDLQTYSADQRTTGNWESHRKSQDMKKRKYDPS

[23] = Counterscreen for inhibitors of Trypanosoma brucei methionyl tRNA synthetase (MetRS): Luminescence-based cell-based high throughput dose response assay to identify compounds that are cytotoxic to Jurkat human T lymphocyte cells.; format: functional
[24] = target: T2, Methionyl-tRNA synthetase, putative (Trypanosoma brucei brucei, UniProt Q38C91); format: functional, Trypanosoma brucei brucei strain 927/4 GUTat10.1
T2 sequence (Q38C91 whole entry): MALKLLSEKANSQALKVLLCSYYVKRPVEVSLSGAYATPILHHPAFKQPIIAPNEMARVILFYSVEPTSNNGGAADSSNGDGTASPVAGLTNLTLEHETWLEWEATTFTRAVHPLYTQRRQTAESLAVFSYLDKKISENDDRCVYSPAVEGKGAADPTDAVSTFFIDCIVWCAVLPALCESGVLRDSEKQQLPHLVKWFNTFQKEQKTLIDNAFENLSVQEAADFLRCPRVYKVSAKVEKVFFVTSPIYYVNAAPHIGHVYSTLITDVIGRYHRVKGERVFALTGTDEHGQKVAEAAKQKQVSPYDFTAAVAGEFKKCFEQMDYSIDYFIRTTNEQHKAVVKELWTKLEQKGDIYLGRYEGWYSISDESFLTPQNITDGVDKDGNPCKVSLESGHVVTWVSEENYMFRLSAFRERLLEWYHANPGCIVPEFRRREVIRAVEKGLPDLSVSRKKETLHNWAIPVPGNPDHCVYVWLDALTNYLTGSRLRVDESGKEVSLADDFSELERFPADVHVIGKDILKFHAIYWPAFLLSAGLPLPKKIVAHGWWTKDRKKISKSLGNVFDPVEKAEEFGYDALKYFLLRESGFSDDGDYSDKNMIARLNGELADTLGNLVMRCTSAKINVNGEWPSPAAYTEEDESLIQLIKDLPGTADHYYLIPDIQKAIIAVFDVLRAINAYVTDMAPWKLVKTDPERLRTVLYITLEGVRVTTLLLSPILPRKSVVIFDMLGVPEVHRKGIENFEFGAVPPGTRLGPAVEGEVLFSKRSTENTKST

[25] = target: T2, Methionyl-tRNA synthetase, putative; format: functional, Trypanosoma brucei brucei strain 927/4 GUTat10.1; remark: listed apart in the source
[26] = target: T3, Aryl hydrocarbon receptor (Homo sapiens, UniProt P35869); conditions: Potency;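 note: confirmatory quantitative high-throughput screen measuring activation of the AhR signaling pathway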
T3 sequence (P35869 whole entry): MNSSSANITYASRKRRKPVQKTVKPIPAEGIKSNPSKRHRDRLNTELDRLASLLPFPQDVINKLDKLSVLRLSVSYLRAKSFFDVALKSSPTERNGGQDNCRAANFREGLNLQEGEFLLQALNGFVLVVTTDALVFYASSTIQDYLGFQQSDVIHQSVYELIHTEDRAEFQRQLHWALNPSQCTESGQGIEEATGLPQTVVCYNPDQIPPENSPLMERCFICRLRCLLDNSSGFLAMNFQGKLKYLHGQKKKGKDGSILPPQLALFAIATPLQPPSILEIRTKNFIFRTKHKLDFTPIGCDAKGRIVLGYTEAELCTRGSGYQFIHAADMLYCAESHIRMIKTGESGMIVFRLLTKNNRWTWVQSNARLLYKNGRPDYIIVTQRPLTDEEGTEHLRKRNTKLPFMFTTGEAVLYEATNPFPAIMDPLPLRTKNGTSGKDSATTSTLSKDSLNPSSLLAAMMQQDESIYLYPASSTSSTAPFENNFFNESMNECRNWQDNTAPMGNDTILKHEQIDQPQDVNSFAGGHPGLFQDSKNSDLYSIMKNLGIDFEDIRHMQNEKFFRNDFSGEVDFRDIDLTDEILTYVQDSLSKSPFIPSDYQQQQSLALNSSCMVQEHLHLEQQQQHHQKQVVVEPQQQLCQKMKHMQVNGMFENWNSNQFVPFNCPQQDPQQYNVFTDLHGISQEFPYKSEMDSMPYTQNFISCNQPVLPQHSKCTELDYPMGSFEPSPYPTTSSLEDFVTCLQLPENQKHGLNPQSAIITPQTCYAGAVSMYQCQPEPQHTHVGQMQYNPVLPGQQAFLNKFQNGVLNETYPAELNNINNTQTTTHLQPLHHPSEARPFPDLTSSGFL

COc1cnc(-c2ccccn2)nc1N(C)c1ccccc1
EC50 [1]: > 120 µM (not active)
EC50 [2]: 1.89 µM (active)
IC50 [3]: 4.58 µM (active)
EC50 [4]: 4.74 µM (active)
AbsAC35_uM [5]: 62.35 µM
EC50 [6]: > 350 µM (not active)
EC50 [7]: 7.24 µM (active)
AC50 [8]: 4.02 µM (active)
EC50 [9]: 8.25 µM (active)
AC50 [10]: 4.34 µM (active)
AC50 [11]: 1.83 µM (active)
EC50 [12]: 5.78 µM (active)
AC50 [13]: 0.92 µM (active)
EC50 [14]: 11 µM (active)
EC50 [15]: 8.68 µM (active)

Oc1cc(-c2cccc(F)c2)nc2ccccc12
IC50 [16]: > 80 µM (inactive)
AC50 [17]: 18.8 µM (active)

CCC(/C=C1\Sc2ccc(OC)cc2N1CCO)=C\c1sc2ccc(OC)cc2[n+]1CCO
EC50 [18]: 5.82 µM (active)
IC50 [19]: 5.11 µM (active)
IC50 [20]: 165 µM (inactive)
EC50 [21]: 5.7 µM (active)
AC50 [22]: 1.77 µM (active)

O=C(CCCOc1ccc(Cl)cc1Cl)N/N=C/c1ccco1
IC50 [23]: 83.3 µM (inactive)
IC50 [24]: 12 µM (inactive)
IC50 [25]: 12.7 µM (inactive)

CC1(C)C(C=C(Cl)Cl)C1C(=O)OCc1cccc(Oc2ccccc2)c1 (stereo unspecified) [PERMETHRIN]
AC50 [26]: 44.7 µM (inconclusive)
